# Values of other authors as cited in patent US9532987B2, “Use of a combination of a MEK inhibitor and an ERK inhibitor for treatment of hyperproliferative diseases” (Genentech, Inc., priority 2013, dated 2017).
# Columns and labels:
# [1] = system: tumor cells bearing activating Ras mutations
# [2] = system: tumor cells bearing activating B-RAF mutations
Compound,inhibition of tumor cell growth [1],inhibition of tumor cell growth [2]
"O=C(c1ccc(F)c(F)c1Nc1ccc(I)cc1F)N1CC(O)([C@@H]2CCCCN2)C1 [GDC-0973, [3,4-difluoro-2-[(2-fluoro-4-iodophenyl)amino]phenyl][3-hydroxy-3-[(2S)-2-piperidinyl]-1-azetidinyl]methanone]",effective,more activity
"O=C(NOCCO)c1ccc2cncn2c1Nc1ccc(I)cc1F [GDC-0623, 5-[(2-fluoro-4-iodophenyl)amino]-N-(2-hydroxyethoxy)-imidazo[1,5-a]pyridine-6-carboxamide]",more activity,effective
